According to patent US20260250290A1 (BRISTOL-MYERS SQUIBB COMPANY, priority 2023, published 2026):
Several values for one entry are separate records, joined by “and”; a condition that tells them apart may be missing. Equal values may be shown once. Where a name gives a salt, the structure may show the parent alone.

Target: T1, full length SGK1 (Homo sapiens, UniProt O00141)
T1 construct: 125 μM full length SGK1 (Life Technologies Part #PR7358A); purchased Life Technologies PR7358A
T1 sequence (O00141 1-431): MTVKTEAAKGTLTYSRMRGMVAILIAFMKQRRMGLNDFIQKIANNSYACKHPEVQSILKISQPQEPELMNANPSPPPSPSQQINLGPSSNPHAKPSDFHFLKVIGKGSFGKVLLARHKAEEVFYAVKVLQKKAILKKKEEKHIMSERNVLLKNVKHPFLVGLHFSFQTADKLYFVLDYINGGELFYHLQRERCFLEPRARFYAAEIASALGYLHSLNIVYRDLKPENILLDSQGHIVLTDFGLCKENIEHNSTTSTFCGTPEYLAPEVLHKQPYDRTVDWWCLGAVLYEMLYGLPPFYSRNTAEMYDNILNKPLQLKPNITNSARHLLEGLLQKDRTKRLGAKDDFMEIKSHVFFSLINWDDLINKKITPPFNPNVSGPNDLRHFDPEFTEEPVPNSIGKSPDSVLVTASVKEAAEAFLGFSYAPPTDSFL
Experiment: SGK1 inhibition Assay A (Caliper LabChip electrophoretic separation of fluorescent peptide substrate and phosphorylated product)
Assay type: biochemical
Details: Assay A; 20 μM ATP, 40 min incubation; read-out: SGK1 IC50

| Compound | IC50 |
| --- | --- |
| CC(=O)N1CC=C(c2cc(N3CCC[C@@H](NC(=O)c4sc(Cl)cc4OCCN4CCNCC4)C3)c3c(N)ncnn23)C1 [Example 298, (R)-N-(1-(7-(1-acetyl-2,5-dihydro-1H-pyrrol-3-yl)-4-aminopyrrolo[2,1-f][1,2,4]triazin-5-yl)piperidin-3-yl)-5-chloro-3-(2-(piperazin-1-yl)ethoxy)thiophene-2-carboxamide] | 14 nM |
| Cc1nc(OC2CCN(C)CC2)c(C(=O)N[C@@H]2CCCN(c3cc(-c4ccc(C#N)nc4)n4ncnc(N)c34)C2)s1 [Example 362, (R)-N-(1-(4-amino-7-(6-cyanopyridin-3-yl)pyrrolo[2,1-f][1,2,4]triazin-5-yl)piperidin-3-yl)-2-methyl-4-((1-methylpiperidin-4-yl)oxy)thiazole-5-carboxamide] | 19 nM |
| COCCOc1cc(Cl)sc1C(=O)N[C@@H]1CCCN(c2cc(-c3ccnc(F)c3)n3ncnc(N)c23)C1 [Example 147, (R)-N-(1-(4-amino-7-(2-fluoropyridin-4-yl)pyrrolo[2,1-f][1,2,4]triazin-5-yl)piperidin-3-yl)-5-chloro-3-(2-methoxyethoxy)thiophene-2-carboxamide] | 4 nM |
| CC(=O)N1CC=C(c2cc(N3CCC[C@@H](NC(=O)c4sc(Cl)cc4OC4CC5(C4)CN(C)C5)C3)c3c(N)ncnn23)C1 [Example 581, (R)-N-(1-(7-(1-acetyl-2,5-dihydro-1H-pyrrol-3-yl)-4-aminopyrrolo[2,1-f][1,2,4]triazin-5-yl)piperidin-3-yl)-5-chloro-3-((2-methyl-2-azaspiro[3.3]heptan-6-yl)oxy)thiophene-2-carboxamide] | 4 nM |
| Nc1ncnn2c(-c3ccc4cnoc4c3)cc(N3CCC[C@@H](NC(=O)c4ccc(Cl)s4)C3)c12 [Example 871, (R)—N-(1-(4-amino-7-(benzo[d]isoxazol-6-yl)pyrrolo[2,1-f][1,2,4]triazin-5-yl)piperidin-3-yl)-5-chlorothiophene-2-carboxamide] | 6 nM |
| CN(C)CCOc1cc(Cl)sc1C(=O)N[C@@H]1CCCN(c2cc(-c3cncnc3)n3ncnc(N)c23)C1 [Example 583, (R)-N-(1-(4-amino-7-(pyrimidin-5-yl)pyrrolo[2,1-f][1,2,4]triazin-5-yl)piperidin-3-yl)-5-chloro-3-(2-(dimethylamino)ethoxy)thiophene-2-carboxamide] | 16 nM and 26 nM |
| CC(=O)N1CC=C(c2cc(N3CCCC(NC(=O)c4sc(Cl)cc4OC4CC5CC4CN5C)C3)c3c(N)ncnn23)C1 (single isomer, unassigned) [Example 608] | 8 nM |
| CC(=O)N1CC=C(c2cc(N3CCC[C@@H](NC(=O)c4scnc4C)C3)c3c(N)ncnn23)C1 [Example 461, (R)-N-(1-(7-(1-acetyl-2,5-dihydro-1H-pyrrol-3-yl)-4-aminopyrrolo[2,1-f][1,2,4]triazin-5-yl)piperidin-3-yl)-4-methylthiazole-5-carboxamide] | 89 nM |
| COC(=O)N1CC=C(c2cc(N3CCC[C@@H](NC(=O)c4sc(Cl)cc4OCCN4CCC(F)(F)C4)C3)c3c(N)ncnn23)C1 [Example 285, Methyl (R)-3-(4-amino-5-(3-(5-chloro-3-(2-(3,3-difluoropyrrolidin-1-yl)ethoxy)thiophene-2-carboxamido)piperidin-1-yl)pyrrolo[2,1-f][1,2,4]triazin-7-yl)-2,5-dihydro-1H-pyrrole-1-carboxylate] | 17 nM |
| Nc1ncnn2c(-c3ccc(=O)[nH]c3)cc(N3CCC[C@@H](NC(=O)c4ccc(Cl)s4)C3)c12 [Example 536, (R)-N-(1-(4-amino-7-(6-oxo-1,6-dihydropyridin-3-yl)pyrrolo[2,1-f][1,2,4]triazin-5-yl)piperidin-3-yl)-5-chlorothiophene-2-carboxamide] | 7 nM |
| COC(=O)N1CC=C(c2cc(N3CCC[C@@H](NC(=O)c4sc(Cl)cc4OC4CN(C5CCOCC5)C4)C3)c3c(N)ncnn23)C1 [Example 573, Methyl (R)-3-(4-amino-5-(3-(5-chloro-3-((1-(tetrahydro-2H-pyran-4-yl)azetidin-3-yl)oxy)thiophene-2-carboxamido)piperidin-1-yl)pyrrolo[2,1-f][1,2,4]triazin-7-yl)-2,5-dihydro-1H-pyrrole-1-carboxylate] | 73 nM |
| Nc1ncnn2c(-c3ccc(=O)n(CC(F)F)c3)cc(N3CCC[C@@H](NC(=O)c4cc(-c5ccccc5)n[nH]4)C3)c12 [Example 504, (R)-N-(1-(4-amino-7-(1-(2,2-difluoroethyl)-6-oxo-1,6-dihydropyridin-3-yl)pyrrolo[2,1-f][1,2,4]triazin-5-yl)piperidin-3-yl)-3-phenyl-1H-pyrazole-5-carboxamide] | 2 nM |
| CS(=O)(=O)c1ccc(-c2cc(N3CCC[C@@H](NC(=O)c4ccn5ccnc5c4)C3)c3c(N)ncnn23)cc1 [Example 54] | 596 nM |
| CC(=O)N1CC=C(c2cc(N3CCC[C@@H](NC(=O)C4CC5(C4)CC(F)(F)C5)C3)c3c(N)ncnn23)C1 [Example 705, (R)-N-(1-(7-(1-acetyl-2,5-dihydro-1H-pyrrol-3-yl)-4-aminopyrrolo[2,1-f][1,2,4]triazin-5-yl)piperidin-3-yl)-6,6-difluorospiro[3.3]heptane-2-carboxamide] | 760 nM |
| Nc1ncnn2c(-c3ccnc(C(F)F)c3)cc(N3CCC[C@@H](NC(=O)c4sc(Cl)cc4OCCN4CCOCC4)C3)c12 [Example 341, (R)—N-(1-(4-amino-7-(2-(difluoromethyl)pyridin-4-yl)pyrrolo[2,1-f][1,2,4]triazin-5-yl)piperidin-3-yl)-5-chloro-3-(2-morpholinoethoxy)thiophene-2-carboxamide] | 2 nM |

The remaining lines, values ahead:

| IC50 | Compound |
| --- | --- |
| 25 nM | Nc1ncnn2c(C3=CCN(C(=O)[C@H]4CCNC4)C3)cc(N3CCC[C@@H](NC(=O)c4ccc(Cl)s4)C3)c12 [Example 891, N-((R)-1-(4-amino-7-(1-((S)-pyrrolidine-3-carbonyl)-2,5-dihydro-1H-pyrrol-3-y1)pyrrolo[2,1-f][1,2,4]triazin-5-y1)piperidin-3-y1)-5-chlorothiophene-2-carboxamide] |
| 254 nM | CC(C)N1CCC(c2cc(C(F)F)sc2C(=O)N[C@@H]2CCCN(c3cc(-c4ccc(C(N)=O)nc4)n4ncnc(N)c34)C2)C1 (stereo partly drawn) [Example 404, 5-(4-amino-5-((3R)-3-(5-(difluoromethyl)-3-(1-isopropylpyrrolidin-3-yl)thiophene-2-carboxamido)piperidin-1-yl)pyrrolo[2,1-f][1,2,4]triazin-7-yl)picolinamide] |
| 4 nM | Nc1ncnn2c(-c3ccc4nncn4c3)cc(N3CCC[C@@H](NC(=O)c4ccc(Cl)s4)C3)c12 [Example 252] |
| 5 nM | CN1CCN(CCOc2cc(Cl)sc2C(=O)N[C@@H]2CCCN(c3cc(C4=CCN(S(C)(=O)=O)C4)n4ncnc(N)c34)C2)CC1 [Example 273, (R)—N-(1-(4-amino-7-(1-(methylsulfonyl)-2,5-dihydro-1H-pyrrol-3-yl)pyrrolo[2,1-f][1,2,4]triazin-5-yl)piperidin-3-yl)-5-chloro-3-(2-(4-methylpiperazin-1-yl)ethoxy)thiophene-2-carboxamide] |
| 2 nM | CN(C)CCOc1cc(Cl)sc1C(=O)N[C@@H]1CCCN(c2cc(-c3ccc(C(N)=O)c(F)c3)n3ncnc(N)c23)C1 [Example 164, (R)-N-(1-(4-amino-7-(4-carbamoyl-3-fluorophenyl)pyrrolo [2,1-f][1,2,4]triazin-5-yl)piperidin-3-yl)-5-chloro-3-(2-(dimethylamino)ethoxy)thiophene-2-carboxamide, 2 TFA] |
| 64 nM | Nc1ncnn2c(-c3cccc(Cl)c3)cc(N3CCC[C@@H](NC(=O)c4ccc(Cl)s4)C3)c12 [Example 234] |
| 5 nM | COc1cnccc1-c1cc(N2CCC[C@@H](NC(=O)c3ccc(Cl)s3)C2)c2c(N)ncnn12 [Example 213, (R)-N-(1-(4-amino-7-(3-methoxypyridin-4-yl)pyrrolo[2,1-f][1,2,4]triazin-5-yl)piperidin-3-yl)-5-chlorothiophene-2-carboxamide, TFA] |
| 2 nM | CS(=O)(=O)c1ccc(-c2cc(N3CCC[C@@H](NC(=O)c4ccc(Cl)s4)C3)c3c(N)ncnn23)cn1 [Example 226, N-[(3R)-1-[4-amino-7-(6-methanesulfonylpyridin-3-yl)pyrrolo[2,1-f][1,2,4]triazin-5-yl]piperidin-3-yl]-5-chlorothiophene-2-carboxamide] |
| 4 nM | CN(C)CCOc1cc(Cl)sc1C(=O)N[C@@H]1CCCN(c2cc(C3=CCN(C(=O)c4cnco4)C3)n3ncnc(N)c23)C1 [Example 907, (R)-N-(1-(4-amino-7-(1-(oxazole-5-carbonyl)-2,5-dihydro-1H-pyrrol-3-yl)pyrrolo[2,1-f][1,2,4]triazin-5-yI)piperidin~3-y1)-5-chloro-3-(2-(dimethylamino)ethoxy)thiophene-2-carboxamide] |
| 261 nM | COc1cc(C(=O)N[C@@H]2CCCN(c3cc(-c4ccc(S(C)(=O)=O)cc4)n4ncnc(N)c34)C2)c(OC)nn1 [Example 67, (R)-N-(1-(4-amino-7-(4-(methylsulfonyl)phenyl)pyrrolo[2,1-f][1,2,4]triazin-5-yl)piperidin-3-yl)-3,6-dimethoxypyridazine-4-carboxamide] |
| 10 nM | CC(=O)N1CC=C(c2cc(N3CCC[C@@H](NC(=O)c4cccc(NCCN5CCCC5)n4)C3)c3c(N)ncnn23)C1 [Example 763, (R)-N-(1-(7-(1-acetyl-2,5-dihydro-1H-pyrrol-3-yl)-4-aminopyrrolo[2,1-f][1,2,4]triazin-5-yl)piperidin-3-yl)-6-((2-(pyrrolidin-1-yl)ethyl)amino)picolinamide] |
